Here are results for three compounds from article PMC9592870 (Molecular Diversity, 2022).

The structures appear in SMILES notation. Values after ≈ are worked out from the molar mass of the structure shown.

The test relates to DR-Mtb strains. Nature of the test: microbe, parasite or virus in culture. The class given is cell-based. As to conditions: Mycobacterium tuberculosis, read-out: MIC against all DR-Mtb strains.
For the compound `COC(=O)c1cc(-c2cccc(NC(=O)Nc3ccc(Cl)c(Cl)c3)c2)on1` [4t, Methyl 5-(3-(3-(3,4-dichlorophenyl)ureido)phenyl)isoxazole-3-carboxylate], the MIC fell in the range of 0.5 to 4 µg/mL (≈ 1.23 to 9.85 µM).

Take `COC(=O)c1cc(-c2ccc(NC(=O)Nc3ccc(Cl)c(Cl)c3)cc2)on1` [4tb, Methyl 5-(4-(3-(3,4-dichlorophenyl)ureido)phenyl)isoxazole-3-carboxylate]: the MIC lay in the range of 1 to 4 µg/mL (≈ 2.46 to 9.85 µM).

Regarding `COC(=O)c1cc(-c2cccc(NC(=S)Nc3ccc(Cl)cc3)c2)on1` [5f, Methyl 5-(3-(3-(4-chlorophenyl)thioureido)phenyl)isoxazole-3-carboxylate], the MIC lay in the range of 0.5 to 4 µg/mL (≈ 1.29 to 10.3 µM).
